From paper PMC11360041 (ACS Omega, 2024) come the findings set out here.

Each structure is given as a SMILES string.

Experiment [1] relates to Fusarium graminearum. Description: microbe, parasite or virus in culture. The format is cell-based. As to conditions: read-out: Inhibition rate, Fg.
Experiment [2] deals with TMV. In words: Inactivation effect of compounds against TMV in vivo. As to conditions: Tobacco mosaic virus, read-out: relative inhibition rate (%) inactive effect. Also noted: species or system tobacco mosaic virus.
Experiment [3] relates to watermelon anthracnose. In words: organism not typed. As to conditions: read-out: Inhibition rate, Wa. In kind it is cell-based.
Experiment [4] relates to Fusarium oxysporium f. sp. cucumeris. In kind it is cell-based. The following applies: read-out: Inhibition rate, Fc.
Experiment [5] has as its system Alternaria solani. The format is cell-based. The following applies: read-out: Inhibition rate, As.
Experiment [6] concerns Bipolaris maydis. In kind it is cell-based. As to conditions: read-out: Inhibition rate, Bm.
Experiment [7] deals with Physalospora piricola. In kind it is cell-based. The following applies: read-out: Inhibition rate, Pp, 50 mg/L, Physalospora piricola.
Experiment [8] has as its system Phytophthora capsici. The format is cell-based. The following applies: read-out: Inhibition rate, Pc.
The test system of experiment [9] is Rhizoctonia solani. In kind it is cell-based. As to conditions: read-out: Inhibition rate, Rs.
Experiment [10] deals with Botrytis cinerea. The format is cell-based. As to conditions: read-out: Inhibition rate, Bc.
Experiment [11] deals with Sclerotinia sclerotiorum. In kind it is cell-based. The following applies: read-out: Inhibition rate, Ss.

For the molecule `O=C(Cn1ccc(=O)c2ccccc21)NN=Cc1ccccc1` [Compound 1], the inhibition at 50 µg/mL in experiment [1] was determined as 14.3 ± 1.2%; in experiment [3] it was 16.3 ± 1.3%; in [4], 22.4 ± 1.9%; in experiment [5], 30.8 ± 2.3%; in experiment [6], 15.6 ± 1.7%; in experiment [7], 16.2 ± 0.5%. In addition, the inhibition at 50 µg/mL in [8] turned out to be 21.4 ± 1.1%; in [9], 14.3 ± 1.3%; in experiment [10] it was 33.3 ± 1.6%; in experiment [11], 19.5 ± 0.7%. In addition, in experiment [2], the inhibition at 100 µg/mL was 0%. Also, the inhibition at 500 µg/mL in experiment [2] is 29.3 ± 1.4%.

Take `Cc1ccc(C=NNC(=O)Cn2ccc(=O)c3ccccc32)cc1` [Compound 2]: the inhibition at 50 µg/mL in [1] was 14.3 ± 1.3%; in experiment [3] it was 14 ± 1.3%; in experiment [4], 28.6 ± 2.3%; in experiment [5] it was 30.8 ± 1.6%; in experiment [6], 11.1 ± 2.1%; in [7] it was 17.6 ± 1.4%. In addition, the inhibition at 50 µg/mL was 26.2 ± 1.8% in [8], 17.9 ± 1.7% in experiment [9], 25 ± 1.5% in experiment [10] and 12.2 ± 1.2% in experiment [11]. In addition, the inhibition at 100 µg/mL in experiment [2] amounted to 0%. The inhibition at 500 µg/mL in experiment [2] was 26.7 ± 3%.

Consider `CC(C)(C)c1ccc(C=NNC(=O)Cn2ccc(=O)c3ccccc32)cc1` [Compound 3], for which the inhibition at 50 µg/mL came to 16.7 ± 1.3% in [1]; 16.3 ± 1.3% in experiment [3]; 10.2 ± 1.6% in experiment [4]; 30.8 ± 2.3% in [5]; 8.9 ± 0.7% in experiment [6]; 35.3 ± 2.1% in experiment [7]. Also, the inhibition at 50 µg/mL was 23.8 ± 1.5% in experiment [8], 17.9 ± 1.8% in experiment [9], 29.2 ± 1.7% in experiment [10] and 22 ± 1.9% in experiment [11]. In addition, the inhibition at 100 µg/mL in [2] came to 0%. The inhibition at 500 µg/mL in experiment [2] is 24.1 ± 1%.

As for `COc1ccc(C=NNC(=O)Cn2ccc(=O)c3ccccc32)cc1OC` [Compound 5], the inhibition at 50 µg/mL in experiment [1] came out at 14.3 ± 1.5%; in experiment [3] it was 16.3 ± 1.2%; in experiment [4], 16.3 ± 1.3%; in experiment [5] it was 30.8 ± 2.1%; in experiment [6] it was 11.1 ± 0.7%; in experiment [7], 22.1 ± 1.5%. Moreover, the inhibition at 50 µg/mL in experiment [8] was 14.3 ± 0.9%; in experiment [9] it was 12.5 ± 1.4%; in experiment [10], 18.8 ± 1.9%; in [11] it was 24.4 ± 1.1%. Further, the inhibition at 100 µg/mL in experiment [2] turned out to be 0%. In [2], the inhibition at 500 µg/mL was found to be 11.3 ± 3.2%.

`CN(C)c1ccc(C=NNC(=O)Cn2ccc(=O)c3ccccc32)cc1` [Compound 8]: the inhibition at 50 µg/mL in [1] is 23.8 ± 1.9%; in experiment [3] it was 16.3 ± 1.7%; in experiment [4], 16.3 ± 1.6%; in [5] it was 30.8 ± 2.3%; in [6], 13.3 ± 1.4%; in experiment [7], 29.4 ± 2.3%. Further, the inhibition at 50 µg/mL in [8] came out at 14.3 ± 1.8%; in experiment [9], 35.7 ± 2.1%; in experiment [10], 25 ± 1.2%; in experiment [11] it was 12.2 ± 1.3%. Also, the inhibition at 100 µg/mL in experiment [2] stood at 0%. The inhibition at 500 µg/mL in experiment [2] is 28.1 ± 1.3%.

With `O=C(Cn1ccc(=O)c2ccccc21)NN=Cc1ccc(-n2cccn2)cc1` [Compound 9], the inhibition at 50 µg/mL in experiment [1] stood at 9.5 ± 0.5%; in experiment [3] it was 14 ± 1.5%; in experiment [4], 18.4 ± 0.7%; in experiment [5] it was 38.5 ± 1.3%; in experiment [6], 15.6 ± 2.1%; in experiment [7] it was 27.9 ± 1.2%. The inhibition at 50 µg/mL in experiment [8] is 14.3 ± 1.1%; in experiment [9], 35.7 ± 2.2%; in experiment [10], 25 ± 1.5%; in [11], 12.2 ± 1.8%. Further, in experiment [2], the inhibition at 100 µg/mL was 5.1 ± 0.8%. In addition, the inhibition at 500 µg/mL in [2] amounted to 38.1 ± 3.2%.

Regarding `CSc1ccc(C=NNC(=O)Cn2ccc(=O)c3ccccc32)cc1` [Compound 10], the inhibition at 50 µg/mL in experiment [1] is 2.4 ± 0.6%; in experiment [3], 14 ± 1.7%; in experiment [4] it was 12.2 ± 1.3%; in experiment [5], 30.8 ± 2.1%; in experiment [6] it was 13.3 ± 0.9%; in [7], 58.8 ± 3.2%. For the same molecule, the inhibition at 50 µg/mL in experiment [8] was 23.8 ± 1.6%; in experiment [9] it was 3.6 ± 1.1%; in experiment [10], 14.6 ± 1.2%; in experiment [11] it was 7.3 ± 1.4%. Moreover, in experiment [2], the inhibition at 100 µg/mL came to 0%. Also, in experiment [2], the inhibition at 500 µg/mL was determined as 15.4 ± 2%.

Take `O=C(Cn1ccc(=O)c2ccccc21)NN=Cc1ccc(F)cc1` [Compound 12]: the inhibition at 50 µg/mL in [1] came to 21.4 ± 1.4%; in experiment [3] it was 16.3 ± 1.6%; in experiment [4], 16.3 ± 1.5%; in [5], 23.1 ± 1.1%; in experiment [6] it was 15.6 ± 1.7%; in experiment [8], 14.3 ± 1.6%. Also, the results for the inhibition at 50 µg/mL in experiment [9], in experiment [10] and in experiment [11] were 32.1 ± 2.1%, 25 ± 1.4% and 7.3 ± 1.2%, respectively. Moreover, the inhibition at 100 µg/mL in experiment [2] stood at 0%. Moreover, in [2], the inhibition at 500 µg/mL turned out to be 27.4 ± 3.9%.

For `O=C(Cn1ccc(=O)c2ccccc21)NN=Cc1ccc(Cl)cc1` [Compound 13], the inhibition at 50 µg/mL was 2.4 ± 0.9% in experiment [1]; 27.9 ± 2.3% in experiment [3]; 24.5 ± 1.3% in [4]; 30.8 ± 1.3% in experiment [5]; 8.9 ± 0.7% in experiment [6]; 17.6 ± 1.5% in experiment [7]. Moreover, the inhibition at 50 µg/mL amounted to 14.3 ± 1.3% in experiment [8], 12.5 ± 1.4% in [9], 14.6 ± 1.3% in experiment [10] and 7.3 ± 0.5% in experiment [11]. Moreover, the inhibition at 100 µg/mL in experiment [2] turned out to be 0%. The inhibition at 500 µg/mL in experiment [2] came out at 18.6 ± 0.7%.

For `O=C(Cn1ccc(=O)c2ccccc21)NN=Cc1ccc(Br)cc1` [Compound 14], the inhibition at 50 µg/mL in experiment [1] turned out to be 2.4 ± 0.6%; in experiment [3] it was 18.6 ± 1.7%; in [4] it was 22.4 ± 1.3%; in experiment [5], 23.1 ± 1.5%; in experiment [6], 4.4 ± 0.6%; in experiment [7] it was 32.4 ± 2.3%. Further, the inhibition at 50 µg/mL amounted to 21.4 ± 1.8% in [8], 1.8 ± 0.7% in experiment [9], 20.8 ± 2.1% in experiment [10] and 2.4 ± 0.4% in experiment [11]. The inhibition at 100 µg/mL in [2] worked out at 0%. For the same molecule, the inhibition at 500 µg/mL in experiment [2] came out at 31.7 ± 2.5%.

For the molecule `O=C(Cn1ccc(=O)c2ccccc21)NN=Cc1ccc([N+](=O)[O-])cc1` [Compound 15], the inhibition at 50 µg/mL came to 7.1 ± 1.3% in [1]; 34.9 ± 1.5% in [3]; 24.5 ± 1.6% in experiment [4]; 30.8 ± 1.1% in experiment [5]; 40 ± 1.3% in experiment [6]; 72.1 ± 2.6% in experiment [7]. For the same molecule, the inhibition at 50 µg/mL in [8] is 14.3 ± 0.6%; in experiment [9], 17.9 ± 1.3%; in experiment [10], 27.1 ± 2.4%; in [11] it was 12.2 ± 1.4%. Also, the inhibition at 100 µg/mL in [2] was determined as 0%. The inhibition at 500 µg/mL in [2] was 16.1 ± 4.8%.

`O=C(Cn1ccc(=O)c2ccccc21)NN=Cc1ccccc1[N+](=O)[O-]` [Compound 16]: the inhibition at 50 µg/mL in experiment [1] was 23.8 ± 1.7%; in [3], 23.3 ± 1.6%; in experiment [4], 18.4 ± 1.3%; in experiment [5] it was 30.8 ± 1.4%; in experiment [6], 13.3 ± 1.5%; in [8] it was 14.3 ± 0.7%. In addition, the results for the inhibition at 50 µg/mL in experiment [9], in experiment [10] and in experiment [11] were 35.7 ± 1.5%, 20.8 ± 1.2% and 24.4 ± 1.1%, respectively. Further, in experiment [2], the inhibition at 100 µg/mL came to 0%. Besides, in [2], the inhibition at 500 µg/mL amounted to 14.6 ± 4%.

Take `O=C(Cn1ccc(=O)c2ccccc21)NN=Cc1cccnc1` [Compound 19]: the inhibition at 50 µg/mL in experiment [1] was 26.2 ± 0.9%; in [3], 46.5 ± 1.3%; in experiment [4], 26.5 ± 0.7%; in [5], 46.2 ± 2.2%; in [6], 46.7 ± 1.1%; in experiment [7] it was 44.1 ± 2.8%. For the same molecule, the inhibition at 50 µg/mL in experiment [8] worked out at 14.3 ± 1.2%; in experiment [9] it was 26.8 ± 1.4%; in experiment [10] it was 20.8 ± 0.9%; in experiment [11], 36.6 ± 1.6%. In [2], the inhibition at 100 µg/mL turned out to be 0%. In [2], the inhibition at 500 µg/mL was found to be 20.5 ± 3.6%.

On to `CCOC(=O)Cn1ccc(=O)c2ccccc21` [Compound B, (4-Oxo-4H-quinolin-1-yl)-acetic Acid Ethyl Ester], for which, in experiment [2], the inhibition at 100 µg/mL worked out at 0% and the inhibition at 500 µg/mL worked out at 32.1 ± 1.6%.

As for `COC(=O)Nc1nc2ccccc2[nH]1` [carbendazim, reference compound], the inhibition at 50 µg/mL in experiment [1] amounted to 29 ± 1.7%; in experiment [3], 100%; in experiment [5] it was 98 ± 1.4%; in [7], 96 ± 1.2%; in experiment [9] it was 100%; in [10], 86 ± 1.4%. In addition, in experiment [11], the inhibition at 50 µg/mL was 100%.

Consider `N#Cc1c(Cl)c(Cl)c(Cl)c(C#N)c1Cl` [chlorothalonil, reference compound], for which the inhibition at 50 µg/mL in experiment [1] came to 73 ± 0.9%; in experiment [3], 100%; in [4], 100%; in experiment [5], 100%; in experiment [6], 86 ± 1.2%; in experiment [7], 91 ± 1.3%. Also, the inhibition at 50 µg/mL in [8] was 73 ± 1.3%; in experiment [9], less than 50%; in [10], 100%; in experiment [11], less than 50%.
